Tests used:
PF4 = molecular target: T1, PF4 (Homo sapiens, UniProt P02776)
T1 sequence (P02776 32-101): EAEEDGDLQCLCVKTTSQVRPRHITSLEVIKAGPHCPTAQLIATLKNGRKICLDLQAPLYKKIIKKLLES

Xa factor = conditions: commercially available comparator, stated in advantages section; cited from earlier work

## CO[C@H]1O[C@H](COS(=O)(=O)O)[C@@H](O[C@@H]2O[C@@H](C(=O)O)[C@@H](O[C@H]3O[C@H](COS(=O)(=O)O)[C@@H](O[C@@H]4O[C@H](C(=O)O)[C@@H](O[C@H]5O[C@H](COS(=O)(=O)O)[C@@H](O)[C@H](O)[C@H]5NS(=O)(=O)O)[C@H](O)[C@H]4O)[C@H](OS(=O)(=O)O)[C@H]3NS(=O)(=O)O)[C@H](O)[C@H]2OS(=O)(=O)O)[C@H](O)[C@H]1NS(=O)(=O)O [fondaparinux, fondaparinux sodium]
PF4
  average particle size of compounds formed with PF4: 61.57 nm
Xa factor
  neutralization of activity against the Xa factor by protamine (in words): almost completely not neutralized

Source: patent publication US20250188506A1, “ANTICOAGULANT HEPARIN-CHONDROITIN CHIMERIC SACCHARIDE MOLECULE AS WELL AS PREPARATION METHOD AND APPLICATION THEREOF” (SHANDONG UNIVERSITY, priority 2023, published 2025)
